Assay results reported in US8772343B2, “Chemical compounds” (Pfizer Limited, priority 2010, dated 2014).
Counter-ions that a name gives are not always drawn.

Target: T1, Nav1.7 (or SCN9A) channel (Homo sapiens, UniProt Q15858)
T1 construct: expressed in transfected cells
Test: Nav1.7 PatchXpress automated whole-cell electrophysiology in HEK cells expressing hSCN9A
Format: cell-based
Settings: estimated IC50 from single point data, PatchXpress assay, held at V1/2 of inactivation, read-out: Nav1.7 EIC50
In short: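 Stably transfected HEK cells recorded by whole-cell patch clamp (conventional or PatchXpress) at room temperature (22-24 °C) in pH 7.4 HEPES-buffered saline. Current evoked by a 20 msec step to 0 mV after an 8 s prepulse at the measured inactivation V1/2. Single-concentration % inhibition converted to estimated IC50 (EIC50); inhibition values <20% or >80% excluded.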

T1 sequence (Q15858 whole entry): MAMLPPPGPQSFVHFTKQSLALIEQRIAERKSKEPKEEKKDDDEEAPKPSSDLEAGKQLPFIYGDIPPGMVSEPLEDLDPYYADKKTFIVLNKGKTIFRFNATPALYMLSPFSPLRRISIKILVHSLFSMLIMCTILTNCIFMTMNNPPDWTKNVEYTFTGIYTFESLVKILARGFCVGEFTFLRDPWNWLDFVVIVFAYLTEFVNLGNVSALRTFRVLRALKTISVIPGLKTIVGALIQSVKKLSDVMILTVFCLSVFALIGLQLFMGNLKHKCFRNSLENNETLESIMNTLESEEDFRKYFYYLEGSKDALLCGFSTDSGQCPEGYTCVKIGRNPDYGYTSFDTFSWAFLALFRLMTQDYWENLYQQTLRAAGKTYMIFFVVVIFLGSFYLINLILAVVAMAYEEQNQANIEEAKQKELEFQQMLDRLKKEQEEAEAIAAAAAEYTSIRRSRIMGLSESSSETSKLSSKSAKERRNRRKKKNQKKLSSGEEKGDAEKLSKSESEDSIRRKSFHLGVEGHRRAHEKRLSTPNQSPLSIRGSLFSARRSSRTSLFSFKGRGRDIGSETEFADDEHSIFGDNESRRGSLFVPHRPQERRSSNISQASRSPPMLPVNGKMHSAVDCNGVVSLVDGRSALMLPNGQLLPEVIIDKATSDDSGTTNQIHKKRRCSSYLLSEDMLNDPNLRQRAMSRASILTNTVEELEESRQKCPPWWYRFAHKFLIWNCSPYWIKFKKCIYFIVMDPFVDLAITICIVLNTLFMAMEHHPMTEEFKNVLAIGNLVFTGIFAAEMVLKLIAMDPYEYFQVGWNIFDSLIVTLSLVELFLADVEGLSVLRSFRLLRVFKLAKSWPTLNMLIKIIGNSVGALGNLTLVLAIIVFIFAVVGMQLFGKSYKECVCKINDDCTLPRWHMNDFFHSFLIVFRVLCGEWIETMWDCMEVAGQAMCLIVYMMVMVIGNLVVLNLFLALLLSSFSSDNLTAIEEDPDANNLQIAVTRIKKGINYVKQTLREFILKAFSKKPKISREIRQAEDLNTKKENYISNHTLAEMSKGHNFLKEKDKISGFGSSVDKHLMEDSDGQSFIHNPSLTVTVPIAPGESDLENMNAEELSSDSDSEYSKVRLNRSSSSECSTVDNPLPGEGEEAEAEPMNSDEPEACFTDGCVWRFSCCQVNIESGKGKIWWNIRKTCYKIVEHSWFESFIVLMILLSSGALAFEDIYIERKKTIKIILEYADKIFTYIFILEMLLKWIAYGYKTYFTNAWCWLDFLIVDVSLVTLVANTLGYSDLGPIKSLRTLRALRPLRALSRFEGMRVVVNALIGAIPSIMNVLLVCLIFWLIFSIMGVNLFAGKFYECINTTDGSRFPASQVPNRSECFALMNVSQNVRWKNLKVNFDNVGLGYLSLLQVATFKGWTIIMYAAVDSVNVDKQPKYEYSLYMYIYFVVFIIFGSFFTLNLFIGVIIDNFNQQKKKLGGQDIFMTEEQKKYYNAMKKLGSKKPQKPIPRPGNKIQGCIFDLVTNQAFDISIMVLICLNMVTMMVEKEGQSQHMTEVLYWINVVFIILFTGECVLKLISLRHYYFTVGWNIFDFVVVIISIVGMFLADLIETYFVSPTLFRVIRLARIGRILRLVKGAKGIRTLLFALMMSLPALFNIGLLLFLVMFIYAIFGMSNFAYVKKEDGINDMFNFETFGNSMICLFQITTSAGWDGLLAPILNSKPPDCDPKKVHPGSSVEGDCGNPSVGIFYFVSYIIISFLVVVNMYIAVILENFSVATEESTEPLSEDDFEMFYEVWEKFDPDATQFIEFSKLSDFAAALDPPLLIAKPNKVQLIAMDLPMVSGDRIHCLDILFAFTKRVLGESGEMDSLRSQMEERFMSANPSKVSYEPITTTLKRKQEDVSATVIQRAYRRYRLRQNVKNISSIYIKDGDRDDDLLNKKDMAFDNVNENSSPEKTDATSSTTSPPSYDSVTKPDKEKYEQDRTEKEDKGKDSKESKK

Compound | IC50
COc1ncccc1-c1cc(C(=O)NS(C)(=O)=O)ccc1Oc1ccc(OC(F)(F)F)cc1 [Example 93, 3-(2-methoxypyridin-3-yl)-N-(methylsulfonyl)-4-[4-(trifluoromethoxy)phenoxy]benzamide] | 0.066 µM
COc1ncccc1-c1cc(C(=O)NS(C)(=O)=O)ccc1Oc1cnc(C2CC2)c(Cl)c1 [Example 94, 4-(5-chloro-6-cyclopropylpyridin-3-yloxy)-3-(2-methoxypyridin-3-yl)-N-(methylsulfonyl)benzamide] | 0.4 µM
CCc1cc(Oc2ccc(C(=O)NS(C)(=O)=O)cc2-c2ccn[nH]2)ccc1Cl [Example 95, 4-(4-chloro-3-ethylphenoxy)-N-(methylsulfonyl)-3-(1H-pyrazol-5-yl)benzamide hydrochloride salt] | 0.1 µM

Target: T1, Nav1.7 (or SCN9A) channel
Test: Nav1.7 Ionworks Quattro automated electrophysiology in HEK cells expressing hSCN9A
Format: cell-based
Settings: estimated IC50, values marked (IW), Ionworks Quattro assay, read-out: Nav1.7 EIC50 (IW)
Procedure: The ability of the compounds of formula (I) to block the Nav1.7 (or SCN9A) channel were measured using the assay described below. Human Embryonic Kidney (HEK) cells were transfected with an hSCN9A construct using lipofectamine reagent (Invitrogen), using standard techniques. Cells stably expressing the hSCN9A constructs were identified by their resistance to G-418 (400 μg/ml). Clones were screened for expression using the whole-cell voltage-clamp technique. HEK cells stably transfected with hSCN9A were maintained in DMEM medium supplemented with 10% heat-inactivated fetal bovine serum and 400 μg/ml G-418 in an incubator at 37° C. with a humidified atmosphere of 10% CO2. For HTS, cells were harvested from flasks by trypsinization and replated in an appropriate multi-well plate (typically 96 or 384 wells/plate) such that confluence would be achieved within 24 hours of plating. For electrophysiological studies, cells were removed from the culture flask by brief trypsinization and re-plated at low density onto glass cover slips. Cells were typically used for electrophysiological experiments within 24 to 72 hours after plating. Electrophysiological assays were also conducted using the Ionworks Quattro automated electrophysiological platform (Molecular Devices Corp). Intracellular and extracellular solutions were as described above with the following changes, 120 μg/ml amphotericin was added to the intracellular solution to perforate the membrane and allow electrical access to the cells. hSCN9A cells were grown and harvested as for PatchXpress and cells were resuspended in extracellular solution at a concentration of 1×10^6 cells/ml. The onboard liquid handling facility of the Ionworks Quattro was used for dispensing cells and application of test compounds. A voltage protocol was then applied that comprised of a voltage step to fully inactivate the sodium channels, followed by a brief hyperpolarized recovery period to allow partial recovery from inactivation for unblocked sodium channels, followed by a test depolarized voltage step to assess magnitude of inhibition by test compound. Compound effect was determined based on current amplitude difference between the pre-compound addition and post-compound addition scans. Compounds of the Examples were tested in the assays described above and found to have the Nav1.7 EIC50 (uM) values specified in the table below. All data are derived from the PatchXpress assay unless expressly stated otherwise.

Compound | IC50
CS(=O)(=O)NC(=O)c1ccc(Oc2ccc(Cl)cc2)c(-c2cccc(C(F)(F)F)c2)c1 [Example 13, 6-(4-chlorophenoxy)-N-(methylsulfonyl)-3′-(trifluoromethyl)biphenyl-3-carboxamide] | 24 µM
CS(=O)(=O)NC(=O)c1ccc(Oc2ccc(Cl)cc2)c(-c2cccc(F)c2)c1 [Example 17, 6-(4-chlorophenoxy)-3′-fluoro-N-(methylsulfonyl)-biphenyl-3-carboxamide] | 13 µM
CS(=O)(=O)NC(=O)c1ccc(Oc2ccc(Cl)cc2)c(-c2cccnc2)c1 [Example 19, 4-(4-chlorophenoxy)-N-(methylsulfonyl)-3-pyridin-3-ylbenzamide] | 28 µM
CS(=O)(=O)NC(=O)c1ccc(Oc2ccc(Cl)cc2)c(-c2cccc(Cl)c2)c1 [Example 22, 3′-chloro-6-(4-chlorophenoxy)-N-(methylsulfonyl)-biphenyl-3-carboxamide] | 15 µM
CS(=O)(=O)NC(=O)c1ccc(Oc2ccc(Cl)cc2)c(-c2ccc(C#N)cc2)c1 [Example 25, 6-(4-chlorophenoxy)-4′-cyano-N-(methylsulfonyl)-biphenyl-3-carboxamide] | 10 µM
CS(=O)(=O)NC(=O)c1ccc(Oc2ccc(Cl)cc2)c(-c2cccc(C#N)c2)c1 [Example 26, 6-(4-chlorophenoxy)-3′-cyano-N-(methylsulfonyl)-biphenyl-3-carboxamide] | 17 µM
CS(=O)(=O)NC(=O)c1ccc(Oc2ccc(Cl)cc2)c(-c2cccc(OC(F)(F)F)c2)c1 [Example 28, 6-(4-chlorophenoxy)-N-(methylsulfonyl)-3′-(trifluoromethoxy)biphenyl-3-carboxamide] | 16 µM
CS(=O)(=O)NC(=O)c1ccc(Oc2ccc(Cl)cc2)c(-c2cn[nH]c2)c1 [Example 30, 4-(4-chlorophenoxy)-N-(methylsulfonyl)-3-(1H-pyrazol-4-yl)benzamide] | 18 µM
COc1ncc(-c2cc(C(=O)NS(C)(=O)=O)ccc2Oc2ccc(Cl)cc2)cn1 [Example 40, 4-(4-chlorophenoxy)-3-(2-methoxypyrimidin-5-yl)-N-(methylsulfonyl)benzamide] | 69 µM
CS(=O)(=O)NC(=O)c1ccc(Oc2ccc(Cl)cc2)c(-c2cncc(C#N)c2)c1 [Example 44, 4-(4-chlorophenoxy)-3-(5-cyanopyridin-3-yl)-N-(methylsulfonyl)benzamide] | 17 µM
Cc1ncc(-c2cc(C(=O)NS(C)(=O)=O)ccc2Oc2ccc(Cl)cc2)cn1 [Example 46, 4-(4-chlorophenoxy)-3-(2-methylpyrimidin-5-yl)-N-(methylsulfonyl)benzamide] | 151 µM
